These results are taken from patent US5668133A, “Ophthalmic compositions comprising emedastine and methods for their use” (priority 1995, dated 1997).

For the experiment, the system named is passive anaphylaxis in guinea pig conjunctiva. As to the kind of experiment: passive conjunctival anaphylaxis, topical ocular antigen challenge, clinical scoring. Format: in vivo. How it is done: Emedastine difumarate was evaluated for its ability to inhibit a passive conjunctival immediate hypersensitivity response following topical ocular administration.
Guinea pigs (5-8/group) were passively sensitized with anti-ovalbumin serum injected subconjunctivally in one eye. Twenty-four hours after passive sensitization, ovalbumin (OA) was administered either i.v. or topically to the eye.
For assessment of the allergic response following topical ocular antigen challenge, 20 μL of ovalbumin (1.0 wt %) was administered to the sensitized eye 5 minutes after topical ocular application of emedastine difumarate or saline (20 μL). Thirty minutes later, the reaction was quantitated, using the following scoring scheme (maximum score per animal=10):
Congestion (refers to palpebral and bulbar conjunctiva):
3--Dark red conjunctiva; petechiae present
1--Any swelling on lower lid only
2--Swelling upper and lower lid, lids partially closed
3--Lids everted, very swollen, lids at least half closed
4--Swelling of both lids and side of face
1--Glazed, glassy appearance
2--Moist lids and surrounding hair
3--Moist lids and surrounding hair, thicker mucous-like

Where [1] appears, read: topical ocular antigen challenge, 5 min before challenge.

Consider `CCOCCn1c(N2CCCN(C)CC2)nc2ccccc21` [Emedastine Difumarate, 1-(2-ethoxyethyl)-2-(4-methyl-1-homopiperazinyl)-benzimidazole], for which, where the note is “5 minutes before topical ocular antigen challenge”, the “reduction in severity of the hypersensitivity response” value is “concentration-dependent reductions in the severity of the hypersensitivity response”. For the same compound, under “concentrations ranging from 0.0001% to 0.1%”, the “attenuation of the hypersensitivity response” value was “Significant attenuation”. In addition, the “% Change” value (topical ocular antigen challenge, 0.0001 wt %, 5 min before challenge) is reported as -29%; the “% Change” value (topical ocular antigen challenge, 0.001 wt %, 5 min before challenge) is -45%; the “% Change” value (topical ocular antigen challenge, 0.01 wt %, 5 min before challenge) is recorded as -51%; the “% Change” value (topical ocular antigen challenge, 0.1 wt %, 5 min before challenge) was -67%. The same compound registered an ED50 under setting [1] of 0.0046 wt %. Further, the “ED50 (text)” value under setting [1] was 0.0046%.
